The values below come from patent publication US20110081317A1, “Enhancing Gene Transfer” (UNIVERSITY OF ROCHESTER, priority 2007, published 2011).

The structures appear in SMILES notation. Peptide text beside a SMILES is read from it. * marks the point of attachment. Cbz = O=C(OCc1ccccc1)*

One data set relates to COS cells. Briefly: Phage-mediated luciferase gene transfer in COS cells. The conditions noted are these: luciferase at 48 h; for effect on phage-mediated luciferase gene transfer: MOI 1×10^6, omeprazole 50 μM, brefeldin A 500 ng/ml, chloroquine 70 μM for 24 h. The data set is classed as cell-based, simian. As for the experimental part:
(§1) Preparation of bacteriophage lambda lysogens and vector production. The λD1180(luc) lysogen (Dam15 del EcoRI-Sac1 clts857 nin5 Sam100) has been described (Eguchi et al., J. Biol. Chem. 276(28):26204-10, 2001). The λD1180(luc) phage contains a firefly luciferase reporter gene under the regulatory control of the human cytomegalovirus immediate-early promoter. λD1180(luc) phage particles were prepared from E. coli lysogens that were stably transformed with either a plasmid encoding wildtype gpD or plasmids encoding gpD fusion proteins of interest, as described (Zanghi et al., Nucleic Acids Res. 33(18):e160, 2005). λ(luc) particles were purified by CsCl density gradient centrifugation and titered on LE392 E. coli cells (Zanghi et al., Nucleic Acids Res. 33(18):e160,2005).
(§2) Cells lines and phage transduction. Human embryonic kidney (HEK) 293 cells and COS simian kidney cells were obtained from American Type Culture Collection (ATCC), P.O. Box 1549, Manassas, Va. 20108. Cells were cultured in Dulbecco's Modified Eagle's Medium (DMEM) containing 10% fetal bovine serum, plus 2 mM L-glutamine and 100 U/ml penicillin, 100 μg/ml streptomycin. Twenty-four to forty-eight (24-48) hours following addition of phage to cells, cultures were washed with phosphate buffered saline (PBS) and lysed in passive lysis buffer (Promega Corporation, Madison, Wis.). Protein content in the lysates was quantitated by Bradford assay, and equal amounts of lysate (normalized in terms of protein content) were used in luciferase assays. Luciferase assay data are reported in relative light units.
(§3) To analyze the function of the proteasome in phage-mediated gene transfer, HEK 293A cells and COS-7 cells were incubated with luciferase encoding phage particles, in the presence or absence of three different pharmacologic inhibitors of proteasome activity (lactacystin, bortezomib and MG132). Lactacystin is an irreversible inhibitor of the 20S-proteasome, while bortezomib and MG132 are reversible inhibitors of the 26S-proteasome complex. […] The latter phage were generated by producing genetically gpD-deficient lambda phage particles in E. coli host cells that expressed a recombinant derivative of gpD, fused to a truncated PEST-like motif derived from seeligeriolysin O, a cholesterol-dependent cytolysin of Listeria seeligeri.

The subject of data set [1] is HEK 293 cells. As to the kind of experiment: Phage-mediated luciferase gene transfer in HEK 293 cells. The data set is classed as cell-based, Human. The conditions noted are these: for effect on phage-mediated luciferase gene transfer: MOI 1×10^6, omeprazole 50 μM, brefeldin A 500 ng/ml, chloroquine 50 μM for 24 h. As for the experimental part: as §1, §2, §3
In data set [2] the test system is HEK 293 cells. As to the kind of experiment: Measurement of endosomal pH by flow cytometry of fluorescein/tetramethylrhodamine dextran. The data set is classed as cell-based, Human. The conditions noted are these: 500 nM bafilomycin A1. As for the experimental part: Measurement of endosomal pH. 5×10^5 HEK293 cells were preincubated in DMEM medium with 10% FBS (DMEM-10) overnight, after which the medium was replaced by DMEM-10 containing 2 mg/ml 70kD fluorescein and tetramethylrhodamine dextran (Invitrogen, Carlsbad, Calif.) plus either 100 nM or 500 nM bafilomycin A1 (BAF) or 2 mg/mL of nigericin (positive control) or no drug (negative control). One and a half (1.5) hours later, cells were washed in warm PBS and fresh media was added (with or without BAF or nigericin, as appropriate). Two (2) hours thereafter, cells were again washed with warm PBS, detached by trypsinization, washed with fresh media (with or without BAF or nigericin, as appropriate), and pelleted by centrifugation (5 minutes, 1000 g at 4° C.). Fluorescein
(F) and tetramethylrhodamine (T) fluorescence were quantitated by flow cytometric analysis using a FACS Calibur (Becton Dickinson). A standard curve was generated by suspending aliquots of cells (in the presence of 2 mg/ml of nigericin) in PBS at pH 4, 4.4, 5, 5.4, 6 and 6.4. The ratio of T/F fluorescence was then plotted against pH, to generate a standard curve; data from the bafilomycin-treated and non-treated cells were then extrapolated to this curve, in order to calculate endosomal pH.
(In general: In flow cytometry, cells or beads pass a laser one at a time.)

Data set [3] has as its system HEK 293 cells. Briefly: Plasmid (pCMV:luc) luciferase expression in transiently transfected HEK 293 cells. The data set is classed as cell-based, Human. The conditions noted are these: pCMV:luc transfected HEK 293; bortezomib 10 nM for 16 h; luciferase at 48 h.
Procedure: Transient transfection of cells with plasmid DNA. 1×10^4 HEK 293 cells were seeded into 96-well plates and incubated overnight. Cells were then transfected with 50 ng of a mammalian expression plasmid encoding the luciferase reporter gene (pgWiz-CMV luciferase) using lipofectamine-2000 reagent in the presence or absence of lOnM bortezomib. Four (4) hours thereafter, media were removed and fresh media were added (with or without bortezomib). Cells were incubated for an additional 12 hours, and media were again replaced (this time without any exogenous drug). Forty-eight (48) hours after transfection of the cells, they were washed with PBS, incubated in 1× passive lysis buffer (Promega Corporation, Madison, Wis.) and lyzed using two freeze-thaw cycles. Protein content within the lysates was then quantitated using Bradford assay and equal amounts of lysate (normalized in terms of protein content) were used in luciferase assays. Luciferase assay data are reported in relative light units.
Therefore, a control experiment was performed to determine whether proteasome inhibition exerted an effect on luciferase expression from a non-phage based gene transfer agent containing the same luciferase expression cassette present in λD1180(luc). […]
Data set [4] deals with HEK 293 cells. Briefly: Quantitative analysis of intranuclear lambda phage genomic DNA (qPCR). The data set is classed as cell-based, Human. The settings on record: Tpell phage, MOI 1×10^6, bortezomib 10 nM for 16 h, harvest at 24 h, p<0.01 vs untreated. For orientation: Real-time PCR tracks product formation cycle by cycle.
Procedure: Quantitative analysis of intranuclear lambda phage genomic DNA. HEK 293 cells were incubated with phage lambda at a MOI of 10^6 in the presence or absence of 10 nM bortezomib. Sixteen (16) hours later, media was replaced with bortezomib-free DMEM (10% FBS); twenty-four (24) hours thereafter, cells were washed with cold PBS and non-internalized phage particles were then removed by performing 3 cold acid washes (0.2M CH3COOH, 0.5M NaCl, pH2.5), as described (Lankes et al., J. Appl. Microbiol 102(5):1337-49, 2007). […] Phage genomic DNA in the nuclear lysate was quantitated by DNA qPCR analysis on a BioRad iCycler using a TaqMan® (Roche Molecular Systems, Inc., Pleasanton, Calif.) primer/probe set specific for the lambda phage integrase gene (Probe: FAM-5′-[sequence]-3′-TAMRA (SEQ ID NO:2), Forward-5′-[sequence]-3′ (SEQ ID NO:3), Reverse-5′-[sequence]-3′ (SEQ ID NO:4)). Cellular chromosomal DNA in the nuclear lysate was also quantitated by DNA qPCR analysis using a TaqMan® (Roche Molecular Systems, Inc., Pleasanton, Calif.) primer/probe set specific for the 18S ribosomal RNA gene (Probe: FAM-5′-[sequence]-3′-TAMRA (SEQ ID NO:5), Forward-5′-[sequence]-3′ (SEQ ID NO:6), Reverse-5′-[sequence]-3′ (SEQ ID NO:7)). […]
The test system of data set [5] is HEK 293 cells. As to the kind of experiment: Cytotoxicity / tolerability of proteasome inhibitors in HEK 293 cells. The data set is classed as cell-based, Human.
Data set [6] deals with COS cells stably transfected with Fc receptor (CD64) and its associated gamma chain. Briefly: Plasmid/Lipofectamine-mediated luciferase gene transfer in CD64-expressing COS cells. The data set is classed as cell-based. The conditions noted are these: 30 min pretreatment, luciferase at 48 h; for increase in plasmid gene transfer efficiency: nocodazole 5 μM or paclitaxel 20 μg/ml. As for the experimental part:
FIG. 12 is a graph showing plasmid mediated luciferase gene transfer in cells treated with a microtubule inhibitor. A DNA plasmid encoding a luciferase reporter gene was mixed with Lipofectamine. This was then added to COS cells that had been stably transfected with expression plasmids encoding a cellular Fc receptor (CD64) and its associated gamma chain, in the presence or absence (DNA only and DNA+DMSO) of latrunculin A (120 nM), paclitaxel (20 μg/ml), or nocodazole (5 μM). Cells were harvested 48 hours later and lysed, and luciferase activity measured.
A DNA plasmid encoding a luciferase reporter gene was mixed with Lipofectamine™ (Invitrogen, Carlsbad, Calif.). This was then added to COS cells that had been stably transfected expression plasmids encoding a cellular Fc receptor
(CD64) and its associated gamma chain. DNA was added to cells that had been pretreated for 30 minutes in the presence or absence of the microtubule inhibitors, nocodazole (5 μM) or paclitaxel (20 μg/ml), or the actin polymerization inhibitor, latrunculin A (120 nM). Cells were harvested 48 hours after transfection and lysed, and luciferase activity was measured.

Another data set concerns COS-7 cells. Briefly: Adenovirus vector (AdLucGFP) mediated luciferase gene transfer in COS-7 cells. The data set is classed as cell-based. The conditions noted are these: AdLucGFP MOI 10, latrunculin A 120 nM added 30 min before transduction. On the procedure:
FIG. 13 is a graph showing, in cells treated with paclitaxel, nocodazole, or latrunculin A, adenoviral-mediated luciferase gene transfer. Latrunculin A ([…]), paclitaxel (20 μg/ml), or nocodazole (5 μM) was added to cells 30 minutes prior to transduction of COS-7 cells with a luciferase-expressing adenovirus vector (AdLucGFP) at a multiplicity of infection (MOI) of 10. Media were changed 24-hours post-transfection, and cells were lysed in Passive Lysis Buffer 24 hours later. Protein quantities were standardized and luciferase activity was measured in the cell lysates. The mean control level is shown as Ad only.
Latrunculin A (120 nM), paclitaxel (Taxol® (Bristol Meyers Squibb, Princeton, N.J.), 20 μg/ml), or nocodazole (5 μM) was added to cells 30 minutes prior to transduction of COS-7 cells with a luciferase-expressing adenovirus vector (AdLucGFP) at a multiplicity of infection (MOI) of 10. Media were changed 24-hours post-transfection, and cells were lysed in Passive Lysis Buffer 24 hours later. Protein quantities were standardized and luciferase activity was measured in the cell lysates.

Where [7] appears, read: Tpell phage, luciferase at 48 h.

As for `CC(C)C[C@@H](C=O)NC(=O)[C@H](CC(C)C)NC(=O)[C@H](CC(C)C)NC(=O)OCc1ccccc1` [MG132] (Cbz-Leu-Leu-Leu-aldehyde), the “effect on phage-mediated luciferase gene expression” value in the data set on COS cells (WT and Tpell phage, MOI 1×10^6, lactacystin 3 μM, bortezomib 10 nM, MG132 1 μM for 16 h) is “strong trend”. Besides, the “enhancement of phage-mediated luciferase expression” value in the data set on HEK 293 cells [1] (WT and Tpell phage, MOI 1×10^6, MG132 1 μM for 16 h, luciferase at 48 h, vs untreated cells) is reported as 5-10 fold.

Turning to `CO/C1=C\C(C)=C\[C@@H](C)[C@@H](O)[C@@H](C)C/C(C)=C/C=C/[C@H](OC)[C@@H]([C@@H](C)[C@@H](O)[C@H](C)[C@@]2(O)C[C@@H](O)[C@H](C)[C@@H](C(C)C)O2)OC1=O` [bafilomycin A1], the “effect on phage-mediated gene transfer” value with COS cells (Tpell phage, MOI 1×10^6, bafilomycin A for 24 h) was “no effect”; in the data set with HEK 293 cells [1] (Tpell phage, MOI 1×10^6, bafilomycin A for 24 h, luciferase at 48 h) it was “no effect”. For the same molecule, in the data set with HEK 293 cells [2], the “effect on endosomal pH” value is on record as “sufficient to raise endosomal pH”.

As for `CC(C)C[C@H](NC(=O)[C@H](Cc1ccccc1)NC(=O)c1cnccn1)B(O)O` [bortezomib], the “effect on plasmid-mediated luciferase expression” value with HEK 293 cells [3] was “no effect”. Further, the “nuclear accumulation of phage DNA (copies of lambda phage genomic DNA per cell)” value in the data set on HEK 293 cells [4] is reported as “statistically significant increase”. The “effect of extended exposure on phage-mediated gene transfer” value in the data set with HEK 293 cells [1] (Tpell phage, MOI 1×10^6, bortezomib 10 nM for 24 h, luciferase at 48 h) was “robust, statistically significant, enhancement”. Besides, the “effect on phage-mediated luciferase gene expression, agents alone and combined” value with HEK 293 cells [1] (Tpell phage, MOI 1×10^6, drugs for 24 h, luciferase at 48 h (FIG. 9)) is “modest increase”. In addition, the “cytotoxicity relative to the other proteasome inhibitors tested” value with HEK 293 cells [5] is “least cytotoxic”.

`C[C@H]1CCC/C=C/[C@@H]2C[C@H](O)C[C@H]2[C@H](O)/C=C/C(=O)O1` [brefeldin A]: the “effect on phage-mediated luciferase gene transfer” value with COS cells (Tpell phage) and with HEK 293 cells [1] (setting [7]) was “no effect” throughout.

For the molecule `CCN(CC)CCCC(C)Nc1ccnc2cc(Cl)ccc12` (stereo not shown) [chloroquine], in the data set with COS cells (Tpell phage), the “effect on phage-mediated luciferase gene transfer” value is reported as “statistically significant enhancement”.

On to `C/C1=C/C(=O)O[C@@H]2C[C@@H](CC[C@H](C)/C=C\C=C\CC1)O[C@@](O)([C@@H]1CSC(=O)N1)C2` [latrunculin A], for which, in data set [6] (latrunculin A 120 nM), the “effect on efficiency of plasmid DNA expression” value is on record as “no effect”. Further, the “effect on adenoviral gene transfer efficiency” value in the data set on COS-7 cells is listed as “no effect”.

`COC(=O)Nc1nc2ccc(C(=O)c3cccs3)cc2[nH]1` [nocodazole]: the “increase in plasmid gene transfer efficiency” value in data set [6] was “approx 50 fold”.

In the case of `COc1ccc2[nH]c([S+]([O-])Cc3ncc(C)c(OC)c3C)nc2c1` (stereo not shown) [omeprazole], the “effect on phage-mediated luciferase gene transfer” value in the data set with COS cells (Tpell phage) and in the data set with HEK 293 cells [1] (setting [7]) was “no effect” throughout.

`CC(=O)O[C@H]1C(=O)[C@@]2(C)[C@H]([C@H](OC(=O)c3ccccc3)[C@]3(O)C[C@H](OC(=O)[C@H](O)[C@@H](NC(=O)c4ccccc4)c4ccccc4)C(C)=C1C3(C)C)[C@]1(OC(C)=O)CO[C@@H]1C[C@@H]2O` [paclitaxel]: the “increase in plasmid gene transfer efficiency” value in data set [6] is recorded as “approx 50 fold”.
